In brackets after ≈: the same amount, converted by molar mass. Where a name gives a salt, the structure may show the parent alone.

Holding throughout (format): physicochemical
Series [1] can be described thus: Exploration of solubility: 300 mg slurry in solvent (10 V) at 15~20° C. Particulars: for solubility: 15 °C, organic solvent or mixture, thermodynamic from solid; for solubility / Solubility (mg/mL): 300 mg slurry at 15~20° C. The source says: Exploration of Step 3: Amide Formation. Exploration of Product Solubility.
Exploration of the Solubility of 4 in Various Solvents.

The nature of series [2]: Exploration of product stability in alkaline conditions. To be noted: for Assay: 15~25° C. The source says:
Exploration of Product Stability in Alkaline Conditions.

Series [3] in a line: Exploration of solvent for filtration: 5a slurry in solvent. To be noted: 500 mg slurry, HCl (EtOH) charged, 15˜25° C. for 20 h. Here is the method:
Exploration of Solvent for Filtration.
Experiments were performed 15˜25° C. for 20 h.

As a reminder, the solubility is the dissolved amount per volume that the medium holds. In the case of `COC(=O)CC[C@H](NC(=O)c1ccc(-n2ccnn2)cc1)C(=O)N1CCN(C)CC1` [Compound 3, methyl (4S)-4-[4-(1H-1,2,3-triazol-1-yl)benzoylamino]-5-(4-methylpiperazin-1-yl)-5-oxopentanoate], the solubility in series [1] (Acetonitrile (10 V)) stood at 29500 µg/mL (≈ 71.2 mM); in series [1] (EtOAc (10 V)), 9000 µg/mL (≈ 21.7 mM); in series [1] (EtOH (10 V)), 22500 µg/mL (≈ 54.3 mM); in series [1] (IPA (10 V)) it was 14100 µg/mL (≈ 34 mM); in series [1] (IPAc (10 V)), 4800 µg/mL (≈ 11.6 mM); in series [1] (MTBE (10 V)) it was 600 µg/mL (≈ 1.45 mM). Besides, the solubility in series [1] (THF (10 V)) stood at 84200 µg/mL (≈ 203 mM). The “Solubility (mg/mL)” value in series [1] (DCM (10 V)) was “Dissolved completely”; in series [1] (Heptane (10 V)), “insoluble”; in series [1] (MeOH (10 V)), “Dissolved completely”. Besides, in series [1] (in DCM, THF or MeOH), the “solubility (conclusion)” value was “good solubility”. The Assay in series [2] (1.0 g, pH 9-10 with 6M LiOH aqueous solution, 0 h) worked out at 1.0 g; in series [2] (1.0 g, pH 9-10 with 6M LiOH aqueous solution, +10 h), 1.0 g; in series [2] (1.0 g, pH 9-10 with 6M LiOH aqueous solution, +24 h (first)), 1.0 g; in series [2] (1.0 g, pH 9-10 with 6M LiOH aqueous solution, +24 h (second)), 1.0 g; in series [2] (1.0 g, pH 9-10 with 10 wt. % K2CO3 aqueous solution, 0 h), 1.0 g; in series [2] (1.0 g, pH 9-10 with 10 wt. % K2CO3 aqueous solution, +10 h), 0.90 g. For the same molecule, the Assay came out at 0.87 g in series [2] (1.0 g, pH 9-10 with 10 wt. % K2CO3 aqueous solution, +24 h (first)); 0.87 g in series [2] (1.0 g, pH 9-10 with 10 wt. % K2CO3 aqueous solution, +24 h (second)); 1.0 g in series [2] (1.0 g, pH 9-10 with 10 wt. % Na2CO3 aqueous solution, 0 h); 0.99 g in series [2] (1.0 g, pH 9-10 with 10 wt. % Na2CO3 aqueous solution, +10 h); 0.97 g in series [2] (1.0 g, pH 9-10 with 10 wt. % Na2CO3 aqueous solution, +24 h (first)); 0.99 g in series [2] (1.0 g, pH 9-10 with 10 wt. % Na2CO3 aqueous solution, +24 h (second)). In addition, the Assay worked out at 1.0 g in series [2] (1.0 g, pH 9-10 with 10 wt. % NaOH aqueous solution, 0 h); 1.0 g in series [2] (1.0 g, pH 9-10 with 10 wt. % NaOH aqueous solution, +10 h); 1.0 g in series [2] (1.0 g, pH 9-10 with 10 wt. % NaOH aqueous solution, +24 h (first)); 1.0 g in series [2] (1.0 g, pH 9-10 with 10 wt. % NaOH aqueous solution, +24 h (second)); 0.7 g in series [2] (1.1 g, pH 10-11 with NaOH aqueous solution (6N), 0 h); 0.4 g in series [2] (1.1 g, pH 10-11 with NaOH aqueous solution (6N), +7 h (after +20 h)). Further, the Assay worked out at 0.5 g in series [2] (1.1 g, pH 10-11 with NaOH aqueous solution (6N), +20 h); 0.3 g in series [2] (1.1 g, pH 10-11 with NaOH aqueous solution (6N), +24 h (first, after +7 h)); 0.2 g in series [2] (1.1 g, pH 10-11 with NaOH aqueous solution (6N), +24 h (second)). In addition, the “stability (conclusion)” value in series [2] (in the presence of K2CO3) is on record as “relatively instable”; in series [2] (pH>10 in basic aqueous solution), “not stable”; in series [2] (weak basic aqueous solution, pH=9-10) it was “relatively stable”.

Take `CN1CCN(C(=O)[C@H](CCC(=O)O)NC(=O)c2ccc(-n3ccnn3)cc2)CC1` [Compound 4, (4S)-4-[4-(1H-1,2,3-triazol-1-yl)benzoylamino]-5-(4-methylpiperazin-1-yl)-5-oxopentanoic Acid]: the solubility in series [1] (Acetonitrile (10 V)) was 400 µg/mL (≈ 0.999 mM); in series [1] (DCM (10 V)), 1000 µg/mL (≈ 2.5 mM); in series [1] (EtOAc (10 V)) it was 400 µg/mL (≈ 0.999 mM); in series [1] (EtOH (10 V)), 4000 µg/mL (≈ 9.99 mM); in series [1] (IPA (10 V)), 900 µg/mL (≈ 2.25 mM); in series [1] (IPAc (10 V)) it was 1000 µg/mL (≈ 2.5 mM). Moreover, the solubility in series [1] (MeOH (10 V)) stood at 37000 µg/mL (≈ 92.4 mM); in series [1] (THF (10 V)) it was 1200 µg/mL (≈ 3 mM). For the same molecule, in series [1] (MeOH), the “stability in MeOH (conclusion of the solubility table)” value is on record as “high stability”. The “solubility (conclusion)” value in series [1] (other tested solvents (than MeOH)) is given as “lower solubility”.

For `CCCCCCCCCCCCSC(=O)CC[C@H](NC(=O)c1ccc(-n2ccnn2)cc1)C(=O)N1CCN(C)CC1` [Compound 5a, dodecyl (4S)-4-[4-(1H-1,2,3-triazol-1-yl)benzoylamino]-5-(4-methyl-piperazin-1-yl)-5-oxopentanethioate Hydrochloride Salt], the “Result (solubility)” value in series [3] (DMSO (20 V)) and in series [3] (NMP (20 V)) was “Soluble” throughout.

Source of the values: US11390590B2, “Methods and processes for the preparation of KDM1A inhibitors” (Imago Biosciences, Inc., priority 2016, dated 2022).
